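How tested: cells in 96-well plates exposed to compound for 48 hours at five concentrations. The concentration for 50% growth inhibition is given as GI50. TGI: total growth inhibition.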
System: A549 NSCLC
Test: DTP human tumour cell line panel, 48 h

Compound | TGI | GI50
N#CC1(C2SCCS2=O)C2=C(C(=O)c3ccccc3C2=O)N2CCCC21 (stereo unspecified) | 6.26 µM | –
CC(=O)Oc1ccccc1C(=O)N=C1[Se]CCN1C(=O)c1ccccc1OC(C)=O | 2.64 µM | 0.832 µM
O=S(O)CCCCSSCc1ccccc1CSSCCCCS(=O)O | > 100 µM | –
Cc1n(Cc2ccc3ccccc3c2)cc[n+]1Cc1ccc2ccccc2c1 | 21.3 µM | 3.81 µM
O=C(O)Cc1c(O)ccc2ccccc12 | > 100 µM | –
CSC1(CC(=O)N(C)C)C(=O)Nc2ccccc21 (stereo unspecified) | > 100 µM | –
COc1cc(/C=C2\C(=O)Nc3ccc(F)cc32)cc(OC)c1OC | > 100 µM | 51.8 µM
C#C[C@]1(O)CC[C@H]2[C@@H]3CC=C4c5sc(Nc6ccccc6)nc5CC[C@]4(C)[C@H]3CC[C@@]21C | 24.9 µM | 3.48 µM
O=C(O)c1c(-c2nccc3ccccc23)[nH]c(-c2ccccc2)c1S(=O)(=O)O | > 100 µM | –
Cc1cn2c(/C=C3/C(=O)Nc4ccccc43)c(-c3ccc(Cl)cc3)nc2s1 | 16 µM | 7.52 µM
O=C(CCC/C(CC(=O)c1ccc(Br)cc1)=N\O)Nc1ccccc1 | > 100 µM | –
Cc1c[n+](Cc2ccc3ccccc3c2)cn1Cc1ccc2ccccc2c1 | 18.7 µM | 5.05 µM
COc1ccccc1NC(=O)C1=C(C)NC(C)=C(C(=O)Nc2ccccc2OC)C1c1ccc([N+](=O)[O-])cc1 | > 100 µM | –
O=C(CSc1nnc(-c2ccccc2NC(=O)C(F)(F)F)c(=O)[nH]1)NC(=O)Nc1ccccc1 | > 100 µM | –
CN1CCc2c(Sc3ccc(C(=O)NO)cc3)c3ccccc3n2C1 | 12.9 µM | 3.29 µM
CN(C)c1ccc2nc3ccc(=O)cc-3sc2c1 | 3.02 µM | 0.312 µM
CC(=O)c1c(CBr)n([O-])c2ccccc2[n+]1=O | 57 µM | 23.1 µM
COc1ccc(C(=O)C(CO)Oc2ccccc2OC)cc1OC (stereo unspecified) | > 100 µM | –

Compound | TGI | GI50
CC(C)(C)C(=O)/C=C/c1ccc(Oc2ccccc2)cc1 | 94.3 µM | –
CN=NN(C)C(=O)NC | > 100 µM | –
c1ccc2c3ccn4cc5c(cc4c-3nc2c1)CCCC5 | 32.6 µM | 9.19 µM
N#CC1Nc2ccccc2[C@@H](O)C1O (stereo partly specified) | > 100 µM | –
CC(C)c1ccccc1S(=O)c1ccccc1C(C)(C)O (stereo unspecified) | > 100 µM | –
Cc1c(C2Nc3ccccc3C2C)[nH]c2ccccc12 (stereo unspecified) | 24.1 µM | 1.67 µM
CCOC(=O)CCc1c(C)c2c(OC(C)=O)cc(OC(C)=O)cc2oc1=O | > 100 µM | –
COc1cc(NC(C)CCCN)c2nccc(C)c2c1OC (stereo unspecified) | 58.5 µM | 22.8 µM
O=C(CN1CCCCC1)N1CCc2c([nH]c3ccccc23)C1c1cccnc1 (stereo unspecified) | > 100 µM | –
COc1cc2cn3c4ccc(O)cc4[nH]c(=O)c3c2cc1OC | 1.3 µM | 0.042 µM
O=C(O)c1cccc(OCCO)c1 | > 100 µM | –
COc1ccc(C2C(C#N)=C(N)OC3=C2COc2ccc(F)cc23)cc1OC (stereo unspecified) | 63.8 µM | 27.2 µM
Cc1cc(C)n(CCNCCn2nc(C)cc2C)n1 | > 100 µM | –
O=C1CSC(Cc2nc3ccccc3[nH]2)=N1 | 79.5 µM | –
O=C(Nc1cccc(Cl)c1Cl)c1cccc(NC2=C(Cl)C(=O)N(Cc3ccccc3)C2=O)c1 | > 100 µM | 36.2 µM
O=C(/C=C/c1ccccc1)/C=C/c1ccccc1 | > 100 µM | –
CCOC(=O)C1=C(C)N(N)C(=S)NC1c1ccc(C)cc1 (stereo unspecified) | > 100 µM | 94.6 µM
N#CC(C#N)=c1[nH]c2cccc3c2-c2c(cccc2c3=C(C#N)C#N)[nH]1 | > 100 µM | –

System: ACHN renal
Test: DTP human tumour cell line panel, 48 h

Compound | TGI | GI50
N#CC1(C2SCCS2=O)C2=C(C(=O)c3ccccc3C2=O)N2CCCC21 (stereo unspecified) | 16.2 µM | –
CC(=O)Oc1ccccc1C(=O)N=C1[Se]CCN1C(=O)c1ccccc1OC(C)=O | 2.86 µM | 1.4 µM
O=S(O)CCCCSSCc1ccccc1CSSCCCCS(=O)O | 74 µM | –
Cc1n(Cc2ccc3ccccc3c2)cc[n+]1Cc1ccc2ccccc2c1 | 23.8 µM | 10.9 µM
O=C(O)Cc1c(O)ccc2ccccc12 | > 100 µM | –
CSC1(CC(=O)N(C)C)C(=O)Nc2ccccc21 (stereo unspecified) | > 100 µM | –
COc1cc(/C=C2\C(=O)Nc3ccc(F)cc32)cc(OC)c1OC | > 100 µM | 50 µM
O=C(O)c1c(-c2nccc3ccccc23)[nH]c(-c2ccccc2)c1S(=O)(=O)O | > 100 µM | –
Cc1cn2c(/C=C3/C(=O)Nc4ccccc43)c(-c3ccc(Cl)cc3)nc2s1 | 8.52 µM | 2.48 µM
O=C(CCC/C(CC(=O)c1ccc(Br)cc1)=N\O)Nc1ccccc1 | > 100 µM | –
Cc1c[n+](Cc2ccc3ccccc3c2)cn1Cc1ccc2ccccc2c1 | 19.4 µM | 5.41 µM
COc1ccccc1NC(=O)C1=C(C)NC(C)=C(C(=O)Nc2ccccc2OC)C1c1ccc([N+](=O)[O-])cc1 | > 100 µM | –
CN1CCc2c(Sc3ccc(C(=O)NO)cc3)c3ccccc3n2C1 | 12.6 µM | 3.04 µM
CN(C)c1ccc2nc3ccc(=O)cc-3sc2c1 | > 49.1 µM | 0.274 µM
CC(=O)c1c(CBr)n([O-])c2ccccc2[n+]1=O | 20.4 µM | 8.12 µM
C#CC(=O)Nc1cccc(Nc2nc3c(c(NCc4ccccc4)n2)CCCC3)c1 | < 0.0317 µM | < 0.0113 µM
COc1ccc(C(=O)C(CO)Oc2ccccc2OC)cc1OC (stereo unspecified) | > 100 µM | –

Compound | TGI | GI50
CC(C)(C)C(=O)/C=C/c1ccc(Oc2ccccc2)cc1 | 32.7 µM | –
CN=NN(C)C(=O)NC | > 100 µM | –
c1ccc2c3ccn4cc5c(cc4c-3nc2c1)CCCC5 | 17.5 µM | 4.75 µM
N#CC1Nc2ccccc2[C@@H](O)C1O (stereo partly specified) | > 100 µM | –
CC(C)c1ccccc1S(=O)c1ccccc1C(C)(C)O (stereo unspecified) | > 100 µM | –
Cc1c(C2Nc3ccccc3C2C)[nH]c2ccccc12 (stereo unspecified) | 23.1 µM | 10.1 µM
CCOC(=O)CCc1c(C)c2c(OC(C)=O)cc(OC(C)=O)cc2oc1=O | > 100 µM | –
COc1cc(NC(C)CCCN)c2nccc(C)c2c1OC (stereo unspecified) | 50.1 µM | 20.7 µM
O=C(CN1CCCCC1)N1CCc2c([nH]c3ccccc23)C1c1cccnc1 (stereo unspecified) | > 100 µM | –
COc1cc2cn3c4ccc(O)cc4[nH]c(=O)c3c2cc1OC | 1.61 µM | 0.0361 µM
O=C(O)c1cccc(OCCO)c1 | > 100 µM | –
COc1ccc(C2C(C#N)=C(N)OC3=C2COc2ccc(F)cc23)cc1OC (stereo unspecified) | 37.2 µM | 12.3 µM
Cc1cc(C)n(CCNCCn2nc(C)cc2C)n1 | > 100 µM | –
O=C1CSC(Cc2nc3ccccc3[nH]2)=N1 | 9.79 µM | –
O=C(Nc1cccc(Cl)c1Cl)c1cccc(NC2=C(Cl)C(=O)N(Cc3ccccc3)C2=O)c1 | > 100 µM | 54.7 µM
O=C(/C=C/c1ccccc1)/C=C/c1ccccc1 | 38.2 µM | –
CCOC(=O)C1=C(C)N(N)C(=S)NC1c1ccc(C)cc1 (stereo unspecified) | > 100 µM | 22.6 µM

System: CAKI-1 renal
Test: DTP human tumour cell line panel, 48 h

Compound | TGI | GI50
N#CC1(C2SCCS2=O)C2=C(C(=O)c3ccccc3C2=O)N2CCCC21 (stereo unspecified) | 15 µM | –
CC(=O)Oc1ccccc1C(=O)N=C1[Se]CCN1C(=O)c1ccccc1OC(C)=O | 1.98 µM | 0.671 µM
O=S(O)CCCCSSCc1ccccc1CSSCCCCS(=O)O | 81.8 µM | –
O=C(O)Cc1c(O)ccc2ccccc12 | > 100 µM | –
COc1cc(/C=C2\C(=O)Nc3ccc(F)cc32)cc(OC)c1OC | > 100 µM | 15.8 µM
C#C[C@]1(O)CC[C@H]2[C@@H]3CC=C4c5sc(Nc6ccccc6)nc5CC[C@]4(C)[C@H]3CC[C@@]21C | 4.41 µM | 1.64 µM
O=C(O)c1c(-c2nccc3ccccc23)[nH]c(-c2ccccc2)c1S(=O)(=O)O | > 100 µM | –
Cc1cn2c(/C=C3/C(=O)Nc4ccccc43)c(-c3ccc(Cl)cc3)nc2s1 | 25.5 µM | 12.1 µM
COc1ccccc1NC(=O)C1=C(C)NC(C)=C(C(=O)Nc2ccccc2OC)C1c1ccc([N+](=O)[O-])cc1 | > 100 µM | –
O=C(CSc1nnc(-c2ccccc2NC(=O)C(F)(F)F)c(=O)[nH]1)NC(=O)Nc1ccccc1 | > 100 µM | –

Reference: PubChem BioAssay (NCI)
